Usually IC50 stands for the concentration needed to halve the response being measured.

The text below walks through data of ChEMBL document CHEMBL2424555, “Discovery of novel 4-anilinoquinazoline derivatives as potent inhibitors of epidermal growth factor receptor with antitumor activity” (Bioorg Med Chem, 2013).

Test [1] concerns the target Epidermal growth factor receptor (Homo sapiens, UniProt P00533). The test is described as follows: Inhibition of recombinant EGFR kinase cytoplasmic domain (unknown origin) expressed in baculovirus expression vector-infected insect sf9 cells assessed as level of autophosphorylation after 10 mins by DELFIA/time-resolved fluorometry.
The test system of a further test is HepG2. The test is described as follows: Antiproliferative activity against human HepG2 cells after 48 hrs by MTT assay. Format: functional, cell-based. To be noted: HepG2, 48 h. For orientation: Tetrazolium assays rely on reduction of a dye to a coloured formazan, in cell work by metabolically active cells.
Test [2] concerns A549. Put plainly: Antiproliferative activity against human A549 cells after 48 hrs by MTT assay. The note with it: A549, 48 h. It is filed as functional, cell-based.
The test system of test [3] is A549. The test is described as follows: Induction of apoptosis in human A549 cells assessed as nuclear fragmentation after 24 hrs by Hoechst 33258 staining-based fluorescence microscopy relative to control. It is filed as functional, cell-based.
In test [4] the test system is A549. Put plainly: Induction of apoptosis in human A549 cells assessed as nuclear fragmentation at 5 to 20 uM after 24 hrs by Hoechst 33258 staining-based fluorescence microscopy relative to control. It is filed as functional, cell-based.
Test [5] deals with A549. Put plainly: Induction of apoptosis in human A549 cells assessed as nuclear condensation after 24 hrs by Hoechst 33258 staining-based fluorescence microscopy relative to control. Format: functional, cell-based.
In test [6] the test system is A549. The test is described as follows: Induction of apoptosis in human A549 cells assessed as nuclear condensation at 5 to 20 uM after 24 hrs by Hoechst 33258 staining-based fluorescence microscopy relative to control. Format: functional, cell-based.
Test [7] deals with A549. The test is described as follows: Induction of apoptosis in human A549 cells assessed as nuclear convolution and budding off into several fragments after 24 hrs by Hoechst 33258 staining-based fluorescence microscopy relative to control. It is filed as functional, cell-based.
In test [8] the test system is A549. The test is described as follows: Induction of apoptosis in human A549 cells assessed as nuclear convolution and budding off into several fragments at 5 to 20 uM after 24 hrs by Hoechst 33258 staining-based fluorescence microscopy relative to control. Format: functional, cell-based.

Active and inactive are the calls of the source. No cut-off for these calls is given here.

Sequence of Epidermal growth factor receptor (P00533 whole entry, the tested form may be a part): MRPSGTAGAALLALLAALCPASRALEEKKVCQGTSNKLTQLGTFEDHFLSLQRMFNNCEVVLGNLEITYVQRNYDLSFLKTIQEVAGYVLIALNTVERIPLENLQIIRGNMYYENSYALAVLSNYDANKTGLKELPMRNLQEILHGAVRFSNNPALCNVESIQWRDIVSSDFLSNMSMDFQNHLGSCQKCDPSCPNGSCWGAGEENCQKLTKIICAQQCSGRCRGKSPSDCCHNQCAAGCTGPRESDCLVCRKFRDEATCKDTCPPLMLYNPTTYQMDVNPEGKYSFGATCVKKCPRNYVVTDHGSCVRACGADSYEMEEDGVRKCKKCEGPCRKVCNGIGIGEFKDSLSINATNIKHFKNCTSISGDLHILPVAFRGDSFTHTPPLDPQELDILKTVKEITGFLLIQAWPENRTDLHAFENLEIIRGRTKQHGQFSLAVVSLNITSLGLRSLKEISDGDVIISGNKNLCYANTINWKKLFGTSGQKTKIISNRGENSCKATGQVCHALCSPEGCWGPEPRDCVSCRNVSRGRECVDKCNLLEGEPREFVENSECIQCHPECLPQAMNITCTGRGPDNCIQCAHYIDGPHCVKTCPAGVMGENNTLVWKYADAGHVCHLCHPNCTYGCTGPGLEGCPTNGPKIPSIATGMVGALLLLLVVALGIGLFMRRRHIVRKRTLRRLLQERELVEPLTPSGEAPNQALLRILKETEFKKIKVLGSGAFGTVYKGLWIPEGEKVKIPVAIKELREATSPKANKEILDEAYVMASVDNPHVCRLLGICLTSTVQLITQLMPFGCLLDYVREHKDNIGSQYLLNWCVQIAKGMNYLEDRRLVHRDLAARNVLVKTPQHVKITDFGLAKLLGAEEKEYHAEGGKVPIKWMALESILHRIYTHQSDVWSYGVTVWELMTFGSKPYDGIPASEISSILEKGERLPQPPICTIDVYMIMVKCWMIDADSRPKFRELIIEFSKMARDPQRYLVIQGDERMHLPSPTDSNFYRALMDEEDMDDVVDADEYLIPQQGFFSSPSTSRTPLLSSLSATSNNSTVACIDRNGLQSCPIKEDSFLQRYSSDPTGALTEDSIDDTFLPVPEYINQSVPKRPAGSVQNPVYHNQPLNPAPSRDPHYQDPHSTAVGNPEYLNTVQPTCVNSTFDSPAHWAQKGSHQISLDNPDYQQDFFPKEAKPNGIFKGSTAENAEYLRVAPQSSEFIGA

As for `O=C(/C=C/c1cccnc1Cl)Nc1ccc2ncnc(Nc3cccc(Cl)c3)c2c1`, the IC50 in [1] is 3.6 µM; in the test with HepG2, 4.42 µM; in the test on A549 [2], 2.92 µM.

As for `Cc1cccc(/C=C/C(=O)Nc2ccc3ncnc(Nc4cccc(Cl)c4)c3c2)n1`, the IC50 amounted to 4.82 µM in the test with HepG2 and 2.16 µM in the test with A549 [2].

Take `O=C(/C=C/c1ccc(Br)s1)Nc1ccc2ncnc(Nc3cccc(Cl)c3)c2c1`: the 50% inhibitory concentration (IC50) in test [1] is 2.4 µM; in the test on HepG2 it was 8.85 µM; in the test with A549 [2] it was 1.58 µM.

For `CSCCCNc1ccc2ncnc(Nc3cccc(Cl)c3)c2c1`, the IC50 in test [1] came to 5.1 µM; in the test with HepG2, 8.92 µM; in the test with A549 [2], 3.82 µM.

As for `O=C(/C=C/c1c[nH]c2ccccc12)Nc1ccc2ncnc(Nc3cccc(Cl)c3)c2c1`, the IC50 with HepG2 was 7.02 µM; with A549 [2], 3.67 µM.

With `O=C(/C=C/c1cccc(Br)n1)Nc1ccc2ncnc(Nc3cccc(Cl)c3)c2c1`, the IC50 is 10.7 µM with HepG2 and 4.16 µM in the test on A549 [2].

For `O=C(/C=C/c1ncc2ccccc2n1)Nc1ccc2ncnc(Nc3cccc(Cl)c3)c2c1`, the IC50 in the test with HepG2 stood at 7.79 µM; with A549 [2], 3.35 µM.

Consider `O=C(/C=C/c1cccnc1)Nc1ccc2ncnc(Nc3cccc(Cl)c3)c2c1`, for which the IC50 worked out at 4.7 µM in test [1], 9.12 µM with HepG2 and 4.32 µM with A549 [2].

Regarding `O=C(/C=C/c1cccs1)Nc1ccc2ncnc(Nc3cccc(Cl)c3)c2c1`, the IC50 worked out at 8.8 µM in [1], 10.4 µM with HepG2 and 9.31 µM in the test with A549 [2].

With `CCCCNc1ccc2ncnc(Nc3cccc(Cl)c3)c2c1`, the IC50 came to 7.85 µM with HepG2 and 4.01 µM in the test on A549 [2].

On to `Cc1cccc(CNc2ccc3ncnc(Nc4cccc(Cl)c4)c3c2)n1`, for which the IC50 in the test on HepG2 was determined as 3.63 µM; in the test with A549 [2], 1.06 µM.

For `Clc1cccc(Nc2ncnc3ccc(NCc4cccnc4)cc23)c1`, the half-inhibitory concentration (IC50) came to 4.14 µM with HepG2 and 2.67 µM in the test on A549 [2].

Turning to `Clc1cccc(Nc2ncnc3ccc(NCc4ccc(Br)s4)cc23)c1`, the Activity result in the test on A549 [3], in the test on A549 [5] and with A549 [7] was “Dose-dependent effect” throughout. Further, the result in the test on A549 [4], in the test with A549 [6] and with A549 [8] was Active. Also, the IC50 in test [1] was 1.5 µM; with HepG2 it was 3.11 µM; with A549 [2] it was 0.82 µM.

In the case of `Clc1cccc(Nc2ncnc3ccc(NCc4cccs4)cc23)c1`, the IC50 in test [1] is 3.4 µM; in the test on HepG2 it was 3.58 µM; in the test with A549 [2], 2.08 µM.

As for `Clc1cccc(Nc2ncnc3ccc(NCc4cccc(Br)n4)cc23)c1`, the IC50 in test [1] amounted to 4.1 µM; in the test with HepG2, 3.87 µM; with A549 [2], 2.95 µM.

In the case of `Clc1cccc(Nc2ncnc3ccc(NCc4c[nH]c5ccccc45)cc23)c1`, the IC50 came out at 5.26 µM in the test on HepG2 and 2.33 µM in the test with A549 [2].

As to `Clc1cccc(Nc2ncnc3ccc(NCc4ncc5ccccc5n4)cc23)c1`, the 50% inhibitory concentration (IC50) stood at 5.65 µM with HepG2 and 1.71 µM in the test with A549 [2].
